Measured values taken from patent US20150366839A1, “Schisantherin A for the treatment of neurodegenerative diseases” (priority 2014, published 2015).

Tests used:
SH-SY5Y cells = assay: MTT cytotoxicity of the five lignans; type: cell-based
Experimental: Human neuroblastoma SH-SY5Y cells were purchased from the American Type Culture Collection (ATCC, Manassas, Va., USA) and cultured in a humidified 5% (v/v) CO2 atmosphere in 37° C. in Dulbecco's Modified Eagle Medium (DMEM) (Life technologies, NY, USA) supplemented with 10% FBS, 1% penicillin (100 U/mL) and streptomycin (100 μg/mL). All experiments were carried out 48 h after the cells were seeded.
Cell viability was determined by 3-(4,5-dimethyl-2-thiazolyl) 2,5-diphenyl-2H-tetrazolium bromide (MTT) assay (Sigma-Aldrich, USA). SH-SY5Y cells were seeded in 96-well plates (1×10^4 cells/well) for 48 h. SH-SY5Y cells were pre-treated with different concentrations of the five lignans (i.e. Schizandrin A, Schizandrin B, SC, Schizandrol A and SchiA) for 12 h and the cell viability was checked by MTT assay. Otherwise, SH-SY5Y cells were pre-treated with different concentrations of the five lignans for 12 h and then exposed to 400 μM 6-OHDA for 4 h. Cells were incubated at 37° C. for 4 h in 0.5 mg/mL MTT solution (prepared in serum free DMEM medium). The medium was then removed, and 100 μL of DMSO was added to each well to dissolve the violet-formazan crystals. The absorbance at 570 nm with 655 nm as a reference wavelength was measured by a multi-label counter (Wallac VICTOR3TMV, Perkin Elmer, Netherlands). Cell viability was expressed as a percentage of the value of the cells without 6-OHDA treatment. The LC50 and EC50 were calculated by GraphPad Prism V5.0 (GraphPad Software, Inc., San Diego, Calif.).
To evaluate the cytotoxicity of five selected lignans of S. chinensis, SH-SY5Y cells were treated with various concentrations of the tested compounds for 12 h and the cell viability was measured using the MTT assay.
To evaluate the cytotoxicity of five selected lignans of S. chinensis, SH-SY5Y cells were treated with various concentrations of the tested compounds for 12 h and the cell viability was measured using the MTT assay. […] To further study the neuroprotective activities of the five lignans in vitro, cells were treated with various concentrations of the tested compounds for 12 h before exposed to MPP^+. […] Values represent mean±S.D. ###P<0.005 versus control group; *p<0.05, **p<0.01 and *** p<0.005 versus MPP group. […] The therapeutic index of SchiA and SC were 14.9 and 8.8, respectively.

Akt = assay: p-Akt level after 6-OHDA, Western blot; type: cell-based, Human
Experimental: (§1) After treatment, SH-SY5Y cells were washed three times with PBS and then lysis with RIPA lysis buffer containing 1% PMSF and 1% Protease Inhibitor Cocktail and incubated for 30 min on ice. Cell lysates were centrifuged at 12,500 g for 20 min at 4° C. The supernatant was separated and the amount of protein was determined using the BCA protein assay kit (Thermo Scientific Pierce, USA). Protein samples (30 μg) were separated by SDS-PAGE (10% (w/v)) polyacrylamide gel and then transferred to a polyvinylidene difluoride (PVDF) membrane (Bio-Rad, Hercules, Calif.). Subsequently, the membrane was blocked with 5% (v/v) non-fat milk in PBST (PBS containing 0.1% Tween 20) for 1 h at room temperature. The blots were incubated overnight at 4° C. with primary antibodies. After three washes with PBST, the membranes were incubated with horseradish peroxidase-conjugated secondary antibodies (1:2000) in PBST with 5% non-fat milk for 1 h at room temperature. […] Quantitative assessment of protein bands was done with Gel Doc™ XRS equipped with Quantity One software.
The inventors also investigated the contribution of the Akt pathway in the neuroprotective effects of SchiA. The inventors measured phosphorylation-Akt (p-Akt) levels after pre-treated with 60 μM SchiA for 12 h and then exposed to 400 μM 6-OHDA for another 4 h (FIGS. 6A and 6B). […]

DA neurons in zebrafish = assay: Anti-TH whole-mount immunostaining, 6-OHDA-induced DA neuron loss; type: in vivo; conditions: 10 μM co-treatment, 250 μM 6-OHDA, 2 days
Experimental: The wild type zebrafish was used for this study.
Zebrafish at one dpf were exposed to 250 μM 6-OHDA in the presence or absence of 10 μM Schi A or 3 μM nomifensine (Nom, a DAT (dopamine transporter) inhibitor used as a positive control) for 2 days. Then zebrafish were collected for immunostaining to detect the DA neurons. Zebrafish were fixed in 4% paraformaldehyde in PBS for 30 min, rinsed, and stored at −20° C. in 100% MtOH. Whole-mount immunostaining was done by standard methods (Zhang, Cheang et al. 2011). Briefly, paraformaldehyde fixed samples were blocked (2% goat serum and 0.1% BSA in PBST,) for 1 h at room temperature. A mouse monoclonal anti-tyrosine hydroxylase antibody (1:200 diluted in blocking buffer) was used as the primary antibody and incubated overnight with the sample at 4° C. […] Semi-quantification TH^+ cells were assessed by an investigator blinded to drug treatment history of zebrafish using Image-Pro Plus 6.0 software (Media Cybernetics, Silver Spring, Md., USA). Results are expressed as percentage of area of TH^+ cells in untreated control group.
To further evaluate the neuroprotective effect of SchiA in vivo, the inventors examined the DA neurons in zebrafish by whole-mount immunofluorescent staining with an antibody against tyrosine hydroxylase (TH). […] Data is expressed as percentage of the control group. […]

caspase-7 = assay: MPP+-induced caspase-7 activation, Western blot; type: cell-based, Human; conditions: 60 μM 12 h, then 2 mM MPP+ 36 h
Experimental: as §1
The inventors performed Western blot to measure the expression of active-form of caspase-3 and caspase-7 in SH-SY5Y cells. […] Caspase-3 activity was expressed as units per mg protein. ###p<0.005 versus control group; *p<0.05, **p<0.01 and *** p<0.005 versus MPP+ group.

## COc1cc2c(c(OC)c1OC)-c1c(cc3c(c1OC)OCO3)C[C@H](C)[C@](C)(O)[C@H]2OC(=O)c1ccccc1 [SchiA, Schisantherin A]
SH-SY5Y cells
  CC50: 121 µM
Akt; 60 μM 12 h, then 400 μM 6-OHDA 4 h
  6-OHDA-induced reduction in p-Akt level: prevented the reduction in p-Akt level
Akt; 60 μM, without 6-OHDA
  p-Akt level, compound alone: did not change
DA neurons in zebrafish
  6-OHDA-induced dopaminergic neuron loss (area of TH+ cells): attenuate the dopaminergic neuron loss induced by 6-OHDA almost to the normal level
caspase-7
  MPP+-induced caspase-7 activation (active form): significant decrease
